The text below walks through data of patent publication US20080318961A1, “Drugs comprising chymase inhibitors and ACE inhibitors as effective ingredients” (Teijin, priority 2001, published 2008).

Usually IC50 stands for the concentration at which inhibition is half-maximal.

Structures can show the parent of a compound that is named as a salt. Where two headings read alike, the source gives them in different places. Bounds are passed on as bounds.

The subject of data set [1] is hamster myocardial infarction models. The following applies: Life Sci. 2002, Vol. 71, p. 437; cited from earlier work.
Another data set has as its target T1, human mast cell chymase (Homo sapiens, UniProt P23946).
T1 construct: made in house; host or cells: insect cells (Th5), recombinant baculovirus
T1 sequence (P23946 22-247): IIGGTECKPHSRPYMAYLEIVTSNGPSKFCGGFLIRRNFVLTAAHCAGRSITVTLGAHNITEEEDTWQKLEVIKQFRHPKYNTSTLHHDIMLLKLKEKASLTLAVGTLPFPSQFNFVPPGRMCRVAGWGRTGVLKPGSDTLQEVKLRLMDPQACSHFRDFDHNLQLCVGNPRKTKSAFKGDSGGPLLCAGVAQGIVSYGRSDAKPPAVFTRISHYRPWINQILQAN
Put plainly: Recombinant human mast cell chymase enzymatic activity inhibition. It counts as biochemical. The procedure:
Specifically, Heparin Sepharose (Pharmacia) was used for purification from a culture supernatant of insect cells (Th5) infected with recombinant baculovirus containing cDNA coding for human mast cell chymase.
The time-related change in absorbance at 405 nm was measured to determine the inhibiting activity.

The next data set relates to hamster chymase. Briefly: Accelerated vascular permeation model by intradermal injection of hamster chymase. Particulars: 0.1% (w/w) in feed for 5 days; Evans Blue, 30 minutes after intradermal hamster chymase. The data set is classed as in vivo, Syrian hamsters. The procedure: Compound No. 33 was mixed with powder feed to a content of 0.1% (w/w) to prepare a feed which was given to hamsters (Syrian hamsters, male, 7-week-old) for 5 days. Under ether anesthesia, the hamster backs were shaved and the hamster chymase was intradermally injected (hamster chymase: 1, 0.3, 0.1 μg/site; vehicle: 0.15 M NaCl, 0.1 mg/ml BSA, 10 mM Pi-Na, pH 7.0). Evans Blue (1% (w/v) solution, 5 ml/kg) was intravenously administered just prior to the intradermal injection, and the blue spots produced by chymase intradermal injection were quantified. Specifically, the hamsters were bled to death from the abdominal aorta 30 minutes after intradermal injection, and the skin was sampled using the blueing spots as an index. The sampled skin was placed in a glass test tube, the dye was extracted with 2 ml of EB extract (acetone:0.3% Na2SO4=7:3), and the dye leakage was measured by colorimetry using a spectrophotometer (620 nm).

The next data set concerns the target hamster chymase 1 (Mesocricetus auratus, UniProt O08732). Put plainly: Chymase-inhibiting activity using hamster chymase. The data set is classed as biochemical. Particulars: Compound No. 33; read-out: Inhibition constant, Hamster chymase. The procedure:
After adding 2 μl of a DMSO solution containing a compound of the invention to 50 μl of Buffer A (0.5-3.0 M NaCl, 50 mM Tris-HCl, pH 8.0) containing 1-5 ng of the active form human mast cell chymase obtained in Example 1, there was added 50 μl of Buffer A containing 0.5 mM succinyl-alanyl-histidyl-prolyl-phenylalanylparanitroanilide (Bachem) as a substrate, and reaction was conducted at room temperature for 5 minutes. The time-related change in absorbance at 405 nm was measured to determine the inhibiting activity.
Hamster chymase was obtained from a crude product extracted from hamster tongue tissue with an acidic buffer solution and subsequently purified with a Phenyl-Sepharose column (elution: 0.15 M NaCl, 50 mM sodium phosphate, pH 6.5, 50% ethylene glycol) and a Heparin-Cellulofine column (elution: 0.5-2.0 M NaCl). The protein was identified as hamster chymase 1 based on the N-terminal amino acid sequence, and activity inhibition was measured by the same method as for the human chymase.

The target in the next data set is Mouse chymase. Put plainly: Enzyme selectivity: mouse chymase inhibition. Particulars: Compound No. 33; read-out: Inhibition constant, Mouse chymase. The data set is classed as biochemical.
Another data set concerns the target Chymotrypsin (Bos taurus, UniProt P00766). Put plainly: Enzyme selectivity: chymotrypsin inhibition. The data set is classed as biochemical. The following applies: Compound No. 33; read-out: Inhibition constant, Chymotrypsin.
A further data set addresses T2, Trypsin (Bos taurus, UniProt P00760).
T2 construct: gene PRSS1
T2 sequence (P00760 24-246): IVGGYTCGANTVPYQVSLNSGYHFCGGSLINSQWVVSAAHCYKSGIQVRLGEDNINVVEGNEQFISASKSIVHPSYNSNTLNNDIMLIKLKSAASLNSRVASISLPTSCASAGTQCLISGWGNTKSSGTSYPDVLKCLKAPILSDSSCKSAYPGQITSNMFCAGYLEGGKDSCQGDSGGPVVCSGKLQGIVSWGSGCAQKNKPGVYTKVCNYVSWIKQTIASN
Briefly: Enzyme selectivity: trypsin inhibition. It counts as biochemical. The following applies: Compound No. 33; read-out: Inhibition constant, Trypsin.

Another data set concerns the target Human tryptase (Homo sapiens, UniProt Q15661). Briefly: Enzyme selectivity: human tryptase inhibition. It counts as biochemical. The following applies: Compound No. 33; read-out: Inhibition constant, Human tryptase.
The nature of data set [2]: Blood drug concentrations upon oral administration to hamsters. It counts as in vivo. The following applies: hamster, serum, 0.1% (w/w) in feed for 5 days, mean±S.E., N=4, read-out: hamster serum concentration of the parent drug. The procedure: The chymase inhibitor designated as Compound No. 33 was mixed with MF powder feed to a content of 0.1% (w/w) to prepare a hamster feed which was given to hamsters for 5 days. Blood was sampled from the abdominal aorta under ether anesthesia, the serum was extracted, and the serum compound concentrations were measured by high-performance liquid chromatography.

The subject of data set [3] is Human chymase-overexpressing mice (TGM). Briefly: Angiotensin-elicited blood pressure increase model using chymase-overexpressing mice. The data set is classed as in vivo. The following applies: continuous angiotensin I infusion; for suppression of vasopressor effect (blood pressure): compared to control group, combination normal from 10th day, P<0.05. As to the method: Human chymase-overexpressing mice (hereinafter abbreviated as “TGM”) created by introduction of the human chymase gene with an angiotensin II-producing function were used as the model animals. Specifically, 8- to 10-week-old TGM mice were used, and angiotensin I was continuously infused with a microosmostic pump embedded under the mouse skin (70 μg/kg/min) to create continuous hypertensive mouse models. The continuous infusion of angiotensin I was confirmed to elicit a vasopressor response of about 30 mmHg in the TGM (n=6) with respect to the wild type (n=8), while depressor action was examined in groups administered a chymase inhibitor (Compound No. 33, 0.1% diet, n=7), an ACE inhibitor (temocapril hydrochloride, 2.0 mg/kg/day, n=6), an angiotensin receptor blocker (ARB) (Valsartan, 14 mg/kg/day, n=7) and a chymase inhibitor and ACE inhibitor simultaneously (Compound No. 33, 0.1% diet, and temocapril hydrochloride, 2.0 mg/kg/day, n=6). The letter “n” indicates the number of individuals. […] […].

The subject of data set [4] is canine myocardial infarction models. Particulars: 75th Annual Meeting of the Japanese Pharmacological Society; cited from earlier work.
The subject of another data set is chymase. Particulars: WO00/51640, J. Med. Chem., 2001, Vol. 44, p. 1286; cited from earlier work.
The mark [5] stands for this setting: stated in parentheses for Compounds A and B, read-out: human chymase IC50 (reference compounds).
Setting [6] is: recombinant active form human mast cell chymase, room temperature 5 minutes, absorbance 405 nm, read-out: IC50, human mast cell chymase inhibiting activity.

Chain of hamster chymase 1 (O08732 entry or part of it): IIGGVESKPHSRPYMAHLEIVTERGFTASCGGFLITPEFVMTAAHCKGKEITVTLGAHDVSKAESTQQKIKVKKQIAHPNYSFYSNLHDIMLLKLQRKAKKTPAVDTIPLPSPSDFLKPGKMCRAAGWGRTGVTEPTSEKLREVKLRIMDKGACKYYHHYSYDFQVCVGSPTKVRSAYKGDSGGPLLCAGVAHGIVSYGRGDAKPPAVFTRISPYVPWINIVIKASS
Chain of Human tryptase (Q15661 31-275): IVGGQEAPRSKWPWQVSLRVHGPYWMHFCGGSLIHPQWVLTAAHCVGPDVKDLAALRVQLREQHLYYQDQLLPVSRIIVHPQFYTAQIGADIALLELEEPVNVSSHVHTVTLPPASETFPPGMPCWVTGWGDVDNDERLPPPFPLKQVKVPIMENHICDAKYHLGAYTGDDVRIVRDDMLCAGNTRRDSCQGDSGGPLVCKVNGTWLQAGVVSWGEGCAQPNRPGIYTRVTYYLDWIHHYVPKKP

For the compound `CCOc1ccccc1CC1C(=O)N(C(=O)NC(c2ccc(C)cc2)c2ccc(C)cc2)C1Oc1ccc(C(=O)O)cc1` (stereo not shown) [4-[1-{[bis(4-methylphenyl)methyl]carbamoyl}-3-(2-ethoxybenzyl)-4-oxoazetidin-2-yloyl]benzoic acid], in data set [1], the “effect when administered alone to hamster myocardial infarction models” value is “exhibit an effect”.
As to `O=C1CN(c2ccc(Cl)cc2)C(=O)N1S(=O)(=O)c1ccc(Cl)cc1` [Compound A, reference compound], the IC50 on human mast cell chymase (setting [5]) worked out at 9 nM. For the same compound, the “dye leakage (accelerated vascular permeation)” value (“dye leakage” below) in the data set on hamster chymase is “no clear suppressing action”.
For the compound `[O-][S+](Cc1ccc(Cl)cc1)c1nnc(OCc2ccc(Cl)cc2)c2nccn12` (stereo not shown) [Compound B, reference compound], the IC50 on human mast cell chymase (setting [5]) was found to be 30 nM. In addition, the “dye leakage” value with hamster chymase was “no clear suppressing action”.
Take `O=C(O)CCCSc1nc2ccccc2n1Cc1cccc2ccccc12` [Compound No. 33]: the Ki was 6.2 ± 2.2 nM on human mast cell chymase (Compound No. 33, read-out: Inhibition constant, Human chymase); 30.6 ± 3.8 nM at hamster chymase 1; 73.4 ± 24.2 nM on Mouse chymase; > 10000 nM at Chymotrypsin; > 10000 nM on Trypsin; > 10000 nM at Human tryptase. The IC50 on human mast cell chymase (setting [6]) was in the range of 10 to 100 nM. Moreover, the concentration at 5 days in data set [2] was found to be 7.89 ± 1.09 µM. Moreover, the “dye leakage” value in the data set with hamster chymase is listed as “decrease in dye leakage”. Further, in data set [3], the “suppression of cardiac hypertrophy” value was “no notable suppression”. The “suppression of vasopressor effect (blood pressure)” value in [3] is reported as “no notable suppression”.
Take `CCCCC(=O)N(Cc1ccc(-c2ccccc2-c2nnn[nH]2)cc1)[C@H](C(=O)O)C(C)C` [Valsartan]: in data set [3], the “suppression of cardiac hypertrophy” value was “no notable suppression”.
Turning to `Cc1ccc2c(c1)c(Cn1c(SCCCC(=O)O)nc3ccccc31)cn2C` [compound 6], at human mast cell chymase (setting [6]), the 50% inhibitory concentration (IC50) was 10 to 100 nM.
With `Cn1cc(Cn2c(SCCCC(=O)O)nc3ccccc32)c2c(Cl)cccc21` [compound 9], the IC50 at human mast cell chymase (setting [6]) was 10 to 100 nM.
On the same count and under the same terms, the figure for `Cn1cc(Cn2c(SCCCC(=O)O)nc3ccccc32)c2c(F)cccc21` [compound 10] is 10 to 100 nM; for `O=C(O)CCCSc1nc2ccccc2n1Cc1csc2ccccc12` [compound 20] it is 10 to 100 nM; for `O=C(O)CCCSc1nc2ccccc2n1Cc1csc2ccc(Cl)cc12` [compound 22] it is 10 to 100 nM.
On the same count and under the same terms, the result for `Cc1ccc2scc(Cn3c(SCCCC(=O)O)nc4ccccc43)c2c1` [compound 24] reads 10 to 100 nM; that for `O=C(O)CCCSc1nc2ccccc2n1Cc1csc2cccc(Cl)c12` [compound 27], 10 to 100 nM; that for `Cc1cc(C)c2c(Cn3c(SCCCC(=O)O)nc4ccccc43)csc2c1` [compound 31], 10 to 100 nM.
The same measure, in the same setting: the result for `COc1ccc2c(c1)nc(SCCCC(=O)O)n2Cc1cn(C)c2cccc(Cl)c12` [compound 45] reads 10 to 100 nM.
Take `COc1ccc2c(c1)nc(SCCCC(=O)O)n2Cc1csc2ccccc12` [compound 56]: the IC50 on human mast cell chymase (setting [6]) lay in the range of 10 to 100 nM.
Same read-out and setting: the figure for `COc1ccc2c(c1)nc(SCCCC(=O)O)n2Cc1csc2cccc(C)c12` [compound 62] is 10 to 100 nM; for `N#Cc1ccc2c(c1)nc(SCCCC(=O)O)n2Cc1csc2ccccc12` [compound 92] it is 10 to 100 nM; for `Cc1ccc2c(c1)nc(SCCCC(=O)O)n2Cc1csc2ccccc12` [compound 128] it is 10 to 100 nM.
`Cc1cc2nc(SCCCC(=O)O)n(Cc3cn(C)c4ccccc34)c2cc1C` [compound 182]: the IC50 at human mast cell chymase (setting [6]) was 10 to 100 nM.
As to `Cc1cc2nc(SCCCC(=O)O)n(Cc3cn(C)c4cccc(C)c34)c2cc1C` [compound 187], the IC50 at human mast cell chymase (setting [6]) lay in the range of 10 to 100 nM.
Consider `Cc1cc2nc(SCCCC(=O)O)n(Cc3cn(C)c4cccc(Cl)c34)c2cc1C` [compound 189], for which, on human mast cell chymase (setting [6]), the IC50 is 10 to 100 nM.
Take `Cc1cc2nc(SCCCC(=O)O)n(Cc3csc4ccccc34)c2cc1C` [compound 200]: the IC50 at human mast cell chymase (setting [6]) lay within 10 to 100 nM.
Same read-out and setting: the figure for `Cc1cc2nc(SCCCC(=O)O)n(Cc3csc4ccc(Cl)cc34)c2cc1C` [compound 202] is 10 to 100 nM; for `Cc1ccc2scc(Cn3c(SCCCC(=O)O)nc4cc(C)c(C)cc43)c2c1` [compound 204] it is 10 to 100 nM.
With `Cc1cc2nc(SCCCC(=O)O)n(Cc3csc4cccc(C)c34)c2cc1C` [compound 206], the IC50 on human mast cell chymase (setting [6]) was in the range of 10 to 100 nM.
With `COc1ccc2nc(SCCCC(=O)O)n(Cc3csc4ccc(C)cc34)c2c1` [compound 240], at human mast cell chymase (setting [6]), the IC50 was in the range of 10 to 100 nM.
The same measure, in the same setting: the figure for `COc1ccc2nc(SCCCC(=O)O)n(Cc3csc4cccc(C)c34)c2c1` [compound 242] is 10 to 100 nM.
As to `O=CNc1cnc(-c2ccccc2)n(CC(=O)NC(Cc2ccccc2)C(=O)C(=O)CCCOc2ccccn2)c1=O` (stereo not shown) [formula (III-I)], the “efficacy when orally administered to canine myocardial infarction models” value in data set [4] was “efficacious”.
With `COC(=O)c1ccc2oc(C(=O)C(Cc3ccccc3)NC(=O)Cn3c(-c4ccccc4OC)ncc(N)c3=O)nc2c1` (stereo not shown) [formula (IV-I)], the “chymase inhibiting activity by oral administration to mouse allergy models” value with chymase was “exhibit chymase inhibiting activity”.
Regarding `CCOC(=O)[C@H](CCc1ccccc1)N[C@H]1CS[C@H](c2cccs2)CN(CC(=O)O)C1=O` [temocapril hydrochloride], in data set [3], the “suppression of cardiac hypertrophy” value was “no notable suppression” and the “suppression of vasopressor effect (blood pressure)” value is reported as “no notable suppression”.
